For one assay, the system named is red blood cells. The note with it: 10 mM dithionite or 20 mM nitrite, cited from earlier work; for cell separation: 1.0 Tesla, 1.0 ml/minute, filtration times of more than one minute; for separation efficiency: 2.0 Tesla, unacceptably variable from sample to sample.
The next assay deals with blood cells. The experiment in a line: Cell integrity during separation (lysis, morphology, clumping, hemoglobin state). Type of assay: cell-based, human. To be noted: 10 mM sodium dithionite. The procedure:
In Table I, the filtration data at 0.75 ml/min is reported for whole blood diluted 1:101 with the working solution including erbium chelate at the indicated concentration. The matrix material was unannealed, 316L austenitic stainless wire, 35 micrometers in diameter, randomly packed to 11.4% of the filter volume. Table I summarizes experimental filtration data according to the concentration of Er(EDTA)^- in the carrier solution, and includes for comparative purposes, sodium dithionite at 10 mM final concentration as a substitute for the chelated lanthanide. The solution osmolarity was adjusted to that of 40 mM erbium chloride by addition of sodium chloride. In a second experiment, 10 mM sodium dithionite in isotonic saline buffered with phosphate was employed. […] Data for various field intensities are given for the higher chelate concentrations, all at constant flows of 0.75 ml/min. Carrier solutions used in each of the stated concentrations of the lanthanide chelate were prepared as described in Example 1.
Cellular hemoglobin remains in the oxygenated (and therefore the antagonistically diamagnetic) state throughout the separation process. Cell lysis was not detected. […] The cells were readily removed from the matrix by flushing with isotonic saline (0.9% NaCl by weight containing no metal chelate). […]

The subject of assay [1] is human blood cells (whole blood). Put plainly: High-gradient magnetic separation (HGMS) filtration of cells from diluted whole blood. Type of assay: cell-based. The note with it: for Magnetic efficiency, E / Magnetic filtration, M / Mechanical Filtration, F / Total Filtration, T: 0.75 ml/min, 316L matrix. The source says:
The samples were verified for normalcy (COULTER COUNTER Model S-Plus; Coulter Electronics, Inc.) before use on the day of drawing.
Separability of cells from carrier fluids was examined using a High-Gradient Magnetic Separation (HGMS) system. The filter was a D-shaped plastic chamber 13 mm long and 118 mm^2 in cross-section, filled with stainless steel wire as noted. Packing was random, but with the major component parallel to flow. […] Suspension flows upward through the filter were controlled by a variable-speed syringe pump, fitted with a 3 ml syringe to contain the cell suspension.
Unless otherwise noted, to clean the matrix and to clear the circuit of air, the filter was flushed manually with 15 ml of the experimental carrier solution before each separation determination. With the electromagnet still de-energized, the circuit was then overfilled rapidly with the corresponding cell suspension, and the syringe pump was activated. After 1.2 ml of cell suspension had been delivered at the chosen flow rate, a one-milliliter aliquot (Al) of filter effluent was collected for use in calculating mechanical filtration levels. With filter backflow prevented, the pump syringe was refilled, the magnet energized at the preselected field intensity, and the delivery and collection (aliquot A2) steps repeated. This sequence was repeated for each selected combination of flow rate and field intensity. A 2 ml control aliquot (A3) was taken for each suspension from the reservoir used to fill the filter and the syringe pump. The aliquots were analyzed for cell count and volume, count data (A1, A2, A3) being used to calculate filter characteristics as follows (for percentages, multiply by 100:)
Mechanical Filtration, F=(A3-A1)/A3
Magnetic filtration, M=(A1-A2)/A3
Magnetic efficiency, E=(A1-A2)/A1=M/(1-F)
Total Filtration, T=(A3-A2)/A3=M+F
The solution osmolarity was adjusted to that of 40 mM erbium chloride by addition of sodium chloride. In a second experiment, 10 mM sodium dithionite in isotonic saline buffered with phosphate was employed.
Erbium chloride was dissolved in water via chelation with EDTA. Carrier solutions of 100 cc each, containing erbium chloride in the concentration of 2 mM, 5 mM, 10 mM, 20 mM, 40 mM and 50 mM respectively and EDTA in a molar ratio of 1.1:1 with the erbium chloride were prepared in the following manner for use in obtaining the data reported in Table I.
The volume was then brought to 75 ml with deionized water, and the materials were mixed in a plastic container. The solution pH was adjusted to 7.0 to 7.1 by adding sodium hydroxide solution. The osmolarity was then adjusted to physiological levels of about 300±10 mOs/L, the 100 ml volume being completed with deionized water. Carrier solutions were prepared within two hours of each experiment from stock solutions no more than one week old.
The above procedures were followed substituting the equivalent amount of dysprosium chloride for the erbium chloride in order to obtain the values reported in FIG. 1.

This is an account of results in US4508625A, “Magnetic separation using chelated magnetic ions” (priority 1983, dated 1985).

Regarding `O=N[O-].[Na+]` [nitrite, sodium nitrite], in the assay with red blood cells, the cell separation result is “approximately 70%” and the separation efficiency entry is reported as “exceeding 85%”.
With `O=S([O-])S(=O)[O-].[Na+].[Na+]` [Sodium dithionite, sodium dithionite], in the assay with blood cells, the deoxygenation of hemoglobin entry is given as “deoxygenation was confirmed spectrophotometrically”. The cell separation entry with red blood cells is reported as “approximately 70%”. Further, the separation efficiency result was “exceeding 85%” in the assay with red blood cells; 37% in assay [1] (0.3 Tesla, 430 ferritic matrix, 40 mM chelate or 10 mM sodium dithionite, 0.75 ml/min (FIG. 1)); 90% in assay [1] (0.7 Tesla, 430 ferritic matrix, 10 mM sodium dithionite, identical flows). Further, the “Magnetic efficiency, E” value in assay [1] (10 mM, 0.30 T) is recorded as 13.0%; in assay [1] (10 mM, 1.00 T), 76.9%; in assay [1] (50 mM, 0.48 T), 92.2%; in assay [1] (50 mM, 1.00 T) it was 98.4%. In addition, the “Magnetic filtration, M” value in assay [1] (10 mM, 0.30 T) worked out at 11.6%; in assay [1] (10 mM, 1.00 T), 68.4%; in assay [1] (50 mM, 0.48 T), 88.2%; in assay [1] (50 mM, 1.00 T), 94.1%. Moreover, the “Mechanical Filtration, F” value in assay [1] (10 mM, 0.30 T) was found to be 11.0%; in assay [1] (10 mM, 1.00 T), 11.0%; in assay [1] (50 mM, 0.48 T) it was 4.3%; in assay [1] (50 mM, 1.00 T) it was 4.3%. For the same compound, the “Total Filtration, T” value in assay [1] (10 mM, 0.30 T) is 22.6%; in assay [1] (10 mM, 1.00 T), 79.4%; in assay [1] (50 mM, 0.48 T) it was 92.5%; in assay [1] (50 mM, 1.00 T), 98.4%. In addition, the “repeatable separations at efficiencies greater than 99%” value in assay [1] (430 ferritic matrix) is on record as “not practical”.
